System: human umbilical vein endothelial cells
Test: Proliferation of human umbilical vein endothelial cells by MTT assay
Assay type: cell-based
Settings: Table 4, 48 hours
Description: A growth factor, VEGF, or notoginsenoside R1, etc. were used as control groups to screen a plant extract for promoting proliferation of vein endothelial cells and estimating activity of the plant extract. The experimental method is described as follows. Human umbilical vein endothelial cells were inoculated in a 96 well plate coated with gelatin with a density of 5×10^3 cells/well, and cultured with M199 complete medium in a 37° C. incubator with 5% CO2 overnight. The next day, the medium in the 96 well plate was changed to a medium containing a test plant extract with a specific concentration and a fresh 5% serum without ECGS, and then the culture plate was incubated. After 48 hours, activity of cells in the culture plate were analyzed by MTT assay and quantitated to obtain the information of the-functional specice of plant, the best part of the plant and the best extraction method for the plant for promoting the proliferation of human umbilical vein endothelial cells.
The extract of whole plants of Sambucus formosana Nakai (Herb 1) and the extract of roots of Isatis indigotica Fort. (Herb 2) were diluted 10-fold from 100 μg/mL which was an effective concentration from the primary screening to 0.1 μg/mL to determine the effective range and dose-response of the herbal extracts. The results of the proliferation assay for cells treated with different single-plant extracts are shown in FIG. 1A and Table 4, the results of the activity assay for cells treated with a combination of plant extracts are shown in FIG. 1B and Table 5, and the results of the proliferation assay for cells treated with extracts of specific parts of the plant are shown in FIG. 1C and Table 6. The two kinds of herbs with a concentration of 100 μg/mL have significant effects for promoting growth of vein endothelial cells, and are capable of achieving a promoting effect equivalent to that of VEGF.

SMILES | Cell growth rate (%) (mean ± standard deviation) (0.005 μM) | Cell growth rate (%) (mean ± standard deviation) (0.05 μM) | Cell growth rate (%) (mean ± standard deviation) (0.5 μM) | Cell growth rate (%) (mean ± standard deviation) (5 μM) | Cell growth rate (%) (mean ± standard deviation) (0.05 μg/mL) | Cell growth rate (%) (mean ± standard deviation) (0.5 μg/mL) | Cell growth rate (%) (mean ± standard deviation) (5 μg/mL) | Cell growth rate (%) (mean ± standard deviation) (50 μg/mL)
C=CCSSCC=C [Diallyl disulfide (DADS), Diallyl disulfide] | 107 ± 6 | 110 ± 2 | 101 ± 9 | 108 ± 4 |  |  |  | 
CC(C)=CCC[C@](C)(O[C@@H]1O[C@H](CO)[C@@H](O)[C@H](O)[C@H]1O)[C@H]1CC[C@]2(C)[C@@H]1[C@H](O)C[C@@H]1[C@@]3(C)CC[C@H](O)C(C)(C)[C@@H]3[C@@H](O[C@@H]3O[C@H](CO)[C@@H](O)[C@H](O)[C@H]3O[C@@H]3OC[C@@H](O)[C@H](O)[C@H]3O)C[C@]12C [Notoginsenoside R1] |  |  |  |  | 118 ± 5 | 95 ± 9 | 107 ± 18 | 91 ± 4
C=CCSCC=C [Diallyl sulfide (DAS), Diallyl sulfide] | 113 ± 12 | 123 ± 11 | 108 ± 2 | 148 ± 1 |  |  |  | 

Reference: patent US20130287873A1, “PHARMACEUTICAL COMPOSITION AND METHOD FOR PREPARING A MEDICATION FOR PROMOTING WOUND HEALING” (INDUSTRIAL TECHNOLOGY RESEARCH INSTITUTE, priority 2012, published 2013)
